This assay addresses T1, ligand binding domain of human ROR gamma (Homo sapiens, UniProt P51449).
T1 construct: NM_001001523; expressed in transfected cells; host or cells: HEK293T
T1 sequence (P51449 247-497 isoform P51449-2): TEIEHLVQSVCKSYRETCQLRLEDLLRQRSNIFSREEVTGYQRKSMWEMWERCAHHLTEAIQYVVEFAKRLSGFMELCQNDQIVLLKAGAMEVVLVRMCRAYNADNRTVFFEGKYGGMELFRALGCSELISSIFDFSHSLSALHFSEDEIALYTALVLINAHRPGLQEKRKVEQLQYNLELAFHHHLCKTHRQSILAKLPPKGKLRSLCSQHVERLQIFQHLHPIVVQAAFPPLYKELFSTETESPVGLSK
The assay can be described thus: ROR gamma reporter gene assay (GAL4-RORγ LBD luciferase, Dual-Glo). Type of assay: cell-based. As to conditions: HEK293T cells transfected with pM-ROR gamma, 8 concentrations 3.5 nM to 10.5 μM, 24 h incubation; read-out: result (pIC50, inhibition of RORγ transcriptional activity) (converted). The procedure, abridged:
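First, HEK293T cells are transfected with the GAL4–RORγ LBD construct, a 5×UAS luciferase reporter and a constitutive renilla control. Next, test compounds are added over eight concentrations (3.5 nM to 10.5 μM). After 24 h at 37 °C, Dual-Glo luminescence is measured and pIC50 fitted.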
(Reporter assays use an easily measured gene product as a stand-in for the process of interest.)
As for `CC1(C)CCC(N(CC(=O)c2c(Cl)cc(F)cc2Cl)C(=O)c2cnn([C@H]3CC[C@](C)(C(=O)O)CC3)c2Cl)CC1` [Example 345, trans-4-(5-chloro-4-((2-(2,6-dichloro-4-fluorophenyl)-2-oxoethyl)-(4,4-dimethylcyclohexyl)carbamoyl)pyrazol-1-yl)-1-methylcyclohexane-1-carboxylic acid], the IC50 is 26300 pM.

Consider `CC(C)[C@H]1C[C@@H]1N(CC(=O)c1c(Cl)cncc1Cl)C(=O)c1cnn([C@H]2CC[C@](C)(C(=O)O)CC2)c1C(F)(F)F` [Example 346, trans-4-(4-((2-(3,5-dichloropyridin-4-yl)-2-oxoethyl)-((1S,2R)-2-propan-2-ylcyclopropyl)carbamoyl)-5-(trifluoromethyl)pyrazol-1-yl)-1-methylcyclohexane-1-carboxylic acid], for which the IC50 was 110000 pM.

For the molecule `CC(C)c1c(C(=O)N(CC(=O)c2c(Cl)cc(F)cc2Cl)C2CCC(C)(C)CC2)cnn1[C@H]1CC[C@](C)(C(=O)O)CC1` [Example 347, trans-4-(4-((2-(2,6-dichloro-4-fluorophenyl)-2-oxoethyl)-(4,4-dimethylcyclohexyl)carbamoyl)-5-propan-2-ylpyrazol-1-yl)-1-methylcyclohexane-1-carboxylic acid], the IC50 is 871000 pM.

`CC(C)(C)SCCN(CC(=O)c1c(Cl)cc(F)cc1Cl)C(=O)c1cnn([C@H]2CC[C@](C)(C(=O)O)CC2)c1C(F)(F)F` [Example 348, trans-4-(4-(2-tert-butylsulfanylethyl-(2-(2,6-dichloro-4-fluorophenyl)-2-oxoethyl)carbamoyl)-5-(trifluoromethyl)pyrazol-1-yl)-1-methylcyclohexane-1-carboxylic acid]: the IC50 is 155000 pM.

As for `CC1(C)CCC(N(CCc2c[nH]c3cccc(Cl)c23)C(=O)c2cnn([C@H]3CC[C@](C)(C(=O)O)CC3)c2C(F)(F)F)CC1` [Example 349, trans-4-(4-(2-(4-chloro-1H-indol-3-yl)ethyl-(4,4-dimethylcyclohexyl)carbamoyl)-5-(trifluoromethyl)pyrazol-1-yl)-1-methylcyclohexane-1-carboxylic acid], the IC50 is 79400 pM.

For `CC(C)(C)S(=O)(=O)CCN(CC(=O)c1c(Cl)cc(F)cc1Cl)C(=O)c1cnn([C@H]2CC[C@](C)(C(=O)O)CC2)c1C(F)(F)F` [Example 350, trans-4-(4-(2-tert-butylsulfonylethyl-(2-(2,6-dichloro-4-fluorophenyl)-2-oxoethyl)carbamoyl)-5-(trifluoromethyl)pyrazol-1-yl)-1-methylcyclohexane-1-carboxylic acid], the IC50 was 1.15e+06 pM.

For `CC(C)(C)[S+]([O-])CCN(CC(=O)c1c(Cl)cc(F)cc1Cl)C(=O)c1cnn([C@H]2CC[C@](C)(C(=O)O)CC2)c1C(F)(F)F` (stereo partly drawn) [Example 351, trans-4-(4-(2-tert-butylsulfinylethyl-(2-(2,6-dichloro-4-fluorophenyl)-2-oxoethyl)carbamoyl)-5-(trifluoromethyl)pyrazol-1-yl)-1-methylcyclohexane-1-carboxylic acid], the IC50 is 7.24e+06 pM.

As to `CC(C)(C)CN(CC(=O)c1c[nH]c2cccc(Cl)c12)C(=O)c1cnn([C@H]2CC[C@](C)(C(=O)O)CC2)c1C(F)(F)F` [Example 352, trans-4-(4-((2-(4-chloro-1H-indol-3-yl)-2-oxoethyl)-(2,2-dimethylpropyl)carbamoyl)-5-(trifluoromethyl)pyrazol-1-yl)-1-methylcyclohexane-1-carboxylic acid], the IC50 is 4.07e+06 pM.

On to `C[C@]1(C(=O)O)CC[C@H](n2ncc(C(=O)N(CCN3CCCC(F)C3)CC(=O)c3c(Cl)cc(F)cc3Cl)c2C(F)(F)F)CC1` (stereo partly drawn) [Example 353, trans-4-(4-((2-(2,6-dichloro-4-fluorophenyl)-2-oxoethyl)-(2-(3-fluoropiperidin-1-yl)ethyl)carbamoyl)-5-(trifluoromethyl)pyrazol-1-yl)-1-methylcyclohexane-1-carboxylic acid], for which the IC50 is 178000 pM.

With `CC1(C)[C@@H]2C[C@H](N(C[C@H](O)c3c(F)cccc3Cl)C(=O)c3cnn([C@H]4CC[C@](C)(C(=O)O)CC4)c3C(F)(F)F)C[C@@H]21` [Example 354, trans-4-(4-((2-(2-chloro-6-fluorophenyl)-2-hydroxyethyl)((1R,3r,5S)-6,6-dimethylbicyclo[3.1.0]hexan-3-yl)carbamoyl)-5-(trifluoromethyl)-1H-pyrazol-1-yl)-1-methylcyclohexanecarboxylic acid], the IC50 was 513000 pM.

On to `CC1(C)[C@@H]2C[C@H](N(C[C@@H](O)c3c(F)cccc3Cl)C(=O)c3cnn([C@H]4CC[C@](C)(C(=O)O)CC4)c3C(F)(F)F)C[C@@H]21` [Example 355, trans-4-(4-((2-(2-chloro-6-fluorophenyl)-2-hydroxyethyl)((1R,3r,5S)-6,6-dimethylbicyclo[3.1.0]hexan-3-yl)carbamoyl)-5-(trifluoromethyl)-1H-pyrazol-1-yl)-1-methylcyclohexanecarboxylic acid], for which the IC50 was 21900 pM.

Consider `COc1cccc(Cl)c1[C@@H](O)CN(CC(C)(C)C)C(=O)c1cnn([C@H]2CC[C@](C)(C(=O)O)CC2)c1C(F)(F)F` [Example 356, trans-4-(4-(((2R)-2-(2-chloro-6-methoxyphenyl)-2-hydroxyethyl)-(2,2-dimethylpropyl)carbamoyl)-5-(trifluoromethyl)pyrazol-1-yl)-1-methylcyclohexane-1-carboxylic acid], for which the IC50 is 102000 pM.

For `COc1cccc(Cl)c1[C@H](O)CN(CC(C)(C)C)C(=O)c1cnn([C@H]2CC[C@](C)(C(=O)O)CC2)c1C(F)(F)F` [Example 357, trans-4-(4-(((2S)-2-(2-chloro-6-methoxyphenyl)-2-hydroxyethyl)-(2,2-dimethylpropyl)carbamoyl)-5-(trifluoromethyl)pyrazol-1-yl)-1-methylcyclohexane-1-carboxylic acid], the IC50 was at least 1e+07 pM.

With `CC(C)(C)CN(CC(=O)c1c(Cl)cccc1Cl)C(=O)c1cnn([C@H]2CC[C@](C)(C(=O)O)CC2)c1Cl` [Example 358, trans-4-(5-chloro-4-((2-(2,6-dichlorophenyl)-2-oxoethyl)-(2,2-dimethylpropyl)carbamoyl)pyrazol-1-yl)-1-methylcyclohexane-1-carboxylic acid], the IC50 was 61700 pM.

For `Cc1cc(Cl)c(C(=O)CN(CC(C)(C)C)C(=O)c2cnn([C@H]3CC[C@](C)(C(=O)O)CC3)c2Cl)c(Cl)c1` [Example 359, trans-4-(5-chloro-4-((2-(2,6-dichloro-4-methylphenyl)-2-oxoethyl)-(2,2-dimethylpropyl)carbarnoyl)pyrazol-1-yl)-1-methylcyclohexane-1-carboxylic acid], the IC50 is 26300 pM.

On to `Cc1[nH]c2cccc(Cl)c2c1CCN(CC(C)(C)C)C(=O)c1cnn([C@H]2CC[C@](C)(C(=O)O)CC2)c1C(F)(F)F` [Example 360, trans-4-(4-(2-(4-chloro-2-methyl-1H-indol-3-yl)ethyl-(2,2-dimethylpropyl)carbamoyl)-5-(trifluoromethyl)pyrazol-1-yl)-1-methylcyclohexane-1-carboxylic acid], for which the IC50 is 178000 pM.

As for `CC1(C)[C@@H]2C[C@H](N(CC(=O)c3c(Cl)cccc3Cl)C(=O)c3cnn([C@H]4CC[C@](C)(C(=O)O)CC4)c3Cl)C[C@@H]21` [Example 363, trans-4-(5-chloro-4-((2-(2,6-dichlorophenyl)-2-oxoethyl)((1R,3r,5S)-6,6-dimethylbicyclo[3.1.0]hexan-3-yl)carbamoyl)-1H-pyrazol-yl)-1-methylcyclohexanecarboxylic acid], the IC50 was 13200 pM.

On to `Cc1c(C(=O)N(CC(=O)c2c(Cl)cccc2Cl)[C@H]2C[C@@H]3[C@H](C2)C3(C)C)cnn1[C@H]1CC[C@](C)(C(=O)O)CC1` [Example 364, trans-4-(4-((2-(2,6-dichlorophenyl)-2-oxoethyl)((1R,3r,5S)-6,6-dimethylbicyclo[3.1.0]hexan-3-yl)carbamoyl)-5-methyl-1H-pyrazol-1-yl)-1-methylcyclohexanecarboxylic acid], for which the IC50 is 45700 pM.

Consider `Cc1cc(Cl)c(C(=O)CN(C(=O)c2cnn([C@H]3CC[C@](C)(C(=O)O)CC3)c2C)[C@H]2C[C@@H]3[C@H](C2)C3(C)C)c(Cl)c1` [Example 365, trans-4-(4-((2-(2,6-dichloro-4-methylphenyl)-2-oxoethyl)((1R,3r,5S)-6,6-dimethylbicyclo[3.1.0]hexan-3-yl)carbamoyl)-5-methyl-1H-pyrazol-1-yl)-1-methylcyclohexanecarboxylic acid], for which the IC50 is 30900 pM.

For `Cc1cc(Cl)c(C(=O)CN(C(=O)c2cnn([C@H]3CC[C@](C)(C(=O)O)CC3)c2Cl)[C@H]2C[C@@H]3[C@H](C2)C3(C)C)c(Cl)c1` [Example 366, trans-4-(5-chloro-4-((2-(2,6-dichloro-4-methylphenyl)-2-oxoethyl)((1R,3r,5S)-6,6-dimethylbicyclo[3.1.0]hexan-3-yl)carbamoyl)-1H-pyrazol-1-yl)-1-methylcyclohexanecarboxylic acid], the IC50 is 15100 pM.

With `CC1(C)[C@@H]2C[C@H](N(CC(=O)c3c(Cl)cncc3Cl)C(=O)c3cnn([C@H]4CC[C@](C)(C(=O)O)CC4)c3Cl)C[C@@H]21` [Example 367, trans-4-(5-chloro-4-((2-(3,5-dichloropyridin-4-yl)-2-oxoethyl)((1R,3r,5S)-6,6-dimethylbicyclo[3.1.0]hexan-3-yl)carbamoyl)-1H-pyrazol-1-yl)-1-methylcyclohexanecarboxylic acid], the IC50 was 30200 pM.
